We go through 34 compounds from patent US20250296938A1, “Compounds that Interact with the Ras Superfamily for the Treatment of Cancers, Inflammatory Diseases, Rasopathies, and Fibrotic Disease” (SHY Therapeutics, LLC, priority 2018, published 2025).

In test [1] the test system is AKT phosphorylation. Kind of test: Western AKT cell-based phosphorylation assay, PANC-1. To be noted: Homo sapiens. How it is done:
Human tumor-derived pancreatic cancer cell line Panc-1 was purchased from American Type Culture Collection and grown in complete DMEM-High Glucose supplemented with penicillin (100 U/mL), streptomycin (100 μg/mL), and 10% heat-inactivated FBS at 37° C. in a humidified incubator with 5% CO2.
(§1) Method: Cells were plated at 350000 cells/well density in a 12-well plate, allowed 3 hours to adhere to the plate, then starved in the appropriate medium in the presence of 0.5% FBS overnight. The small molecules to be tested were added to the cells in the final concentration of 10 μM in the presence of 0.3% DMSO for 6 hours incubation at 37° C. Next, cells were stimulated with 1.5 ng/ml EGF for 15 minutes then cells were lysed with lysis buffer containing 1% Triton X-100, EDTA, and Halt™ Protease & Phosphatase Inhibitor Cocktail (Thermo Scientific). Protein concentration was assessed by BCA protein assay (Thermo Scientific). Phosphorylation level of Akt was determined by western blot.
(§2) Western blot protocol: Equal amounts of protein (15-50 μg) were separated by SDS-PAGE and transferred to nitrocellulose membranes (Invitrogen by Thermo Fisher Scientific). The membrane was stained with Ponceau S Stain (Boston BioProducts) to verify uniform protein loading. Membranes were blocked with 10% milk and phosphorylation levels of Akt were assessed by incubating overnight at 4° C. with anti-phospho-Akt (Ser473) antibody (Cell Signaling) followed by HRP-conjugated secondary antibody (Jackson Immunoresearch, West Grove, PA). Bands were incubated in Amersham ECL Prime Western Blotting Detection Reagent (GE Healthcare) and visualized using the ChemiDoc MP imaging system (Bio-Rad).

Test [2] relates to MAPK phosphorylation. Kind of test: MAPK cell-based phosphorylation assay (ELISA or Western), PANC-1. The conditions noted are these: Homo sapiens, 10 μM. Here is the method:
Cell lines: Tumor-derived pancreatic cancer cell line PANC-1 was purchased from ATCC and were and grown in DMEM-High Glucose supplemented with penicillin (100 U/mL), streptomycin (100 μg/mL), and 10% heat-inactivated FBS at 37° C. in a humidified incubator with 5% CO2.
Method: Cells were plated at 7500 cells/well density in a 96-well plate, allowed 3 hours to adhere to the plate, then starved in DMEM plus 0.5% FBS overnight. The small molecules to be tested were added to the cells in the final concentration of 10 μM in the presence of 0.3% DMSO for 6 hours incubation at 37° C. For IC50 value determination, serial dilutions of compounds were added to cells under the same conditions. Next, cells were stimulated with 1.5 ng/mL EGF for 15 minutes followed by cell fixation with 4% formaldehyde in PBS at room temperature for 20 minutes. Cell-direct ELISA determined phosphorylation level of MAPK.
Cell-direct ELISA: For each well, cells were permeabilized with 0.1% PBS-Triton X-100, quenched with 0.06% H2O2 in 0.1% PBS-Triton X-100, and probed with anti-phospho-MAPK antibodies (R&D Systems) followed by HRP-conjugated secondary antibody (Jackson Immunoresearch, West Grove, PA). Next, a 50 μM solution of the fluorescent substrate AmpliFlu Red (Sigma) was added and incubated at RT for 20 minutes. At the end of the incubation time, phosphorylation level of MAPK was determined by measuring fluorescence at 595 nm using SpectraMax M3 plate reader (Molecular Devices).
Cell lines: Human NSCLC cells NCI-H1975 and NCI-H1299, and tumor-derived pancreatic cancer cell lines Panc-1, MIA-PaCa-2, and BxPC3, were all purchased from American Type Culture Collection and grown in complete RPMI medium (BxPC3, NCI-H1975 and NCI-H1299) or DMEM-High Glucose (Panc1 and MIA-PaCa-2), supplemented with penicillin (100 U/mL), streptomycin (100 μg/mL), and 10% heat-inactivated FBS at 37° C. in a humidified incubator with 5% CO2.
as §1, with “C. For IC50 value determination, serial dilutions of compounds were added to cells under the same conditions.” for “C.”, “MAPK” for “Akt”
as §2, with “MAPK” for “Akt”, “anti-phospho-p44/42 (Thr202/Tyr204)” for “anti-phospho-Akt (Ser473)”
(ELISA stands for enzyme-linked immunosorbent assay.)

The mark [3] stands for this setting: 6 hours, EGF stimulation, PANC-1.

SMILES strings stand for the structures.

The inhibition is the share of the control response that was lost under treatment. A higher inhibition goes with strong suppression. As to `CO[C@H]1CC[C@@H](Nc2nc(-c3nccn3C)nc3sc(C(=O)N4CCOCC4)c(-c4ccccc4)c23)C1` [drawing 527], the inhibition at 10 µM in test [1] (PANC-1 (Table 4C)) and in test [2] (PANC-1 (Table 4C)) was 0% throughout.
For `Cc1cn(C)c(-c2nc(O)c3scc(-c4ccccn4)c3n2)n1` [drawing 395], the inhibition at 10 µM in test [1] (setting [3]) and in test [2] (setting [3]) was 0% each time.
With `CO[C@H]1CC[C@@H](Nc2nc(-c3nccn3C)nc(C(=O)N3CCc4c(O)cccc4C3)c2C)C1` [drawing 501], the values for the inhibition at 10 µM in test [1] (PANC-1 (Table 4C)) and in test [2] (PANC-1 (Table 4C)) were 1 to 25% and 26 to 50%, respectively.
As for `CN(C)CCOCCNc1nc(-c2nccn2C)nc2sc(-c3ccn(C)n3)c(-c3ccccc3)c12` [drawing 507], the inhibition at 10 µM in test [1] (PANC-1 (Table 4C)) and in test [2] (PANC-1 (Table 4C)) was 0% in each case.
With `COC1CCC(Nc2nc(-c3nccn3C)nc3sc(-c4cccc(O)c4F)c(-c4ccccc4)c23)C1` (centres unmarked) [drawing 485], the inhibition at 10 µM in test [1] (PANC-1 (Table 4C)) is 0%; in test [2] (PANC-1 (Table 4C)) it was 76 to 100%.
For the compound `COCCn1cc(Nc2nc(-c3ccccn3)nc(OC)c2OC)cn1` [drawing 470], the inhibition at 10 µM in test [1] (setting [3]) and in test [2] (setting [3]) was 0% throughout.
`COC1CCN(c2nc(-c3nccn3C)nc3sc(-c4ccncc4C)c(-c4ccccc4)c23)C1` (centres unmarked) [drawing 434]: the inhibition at 10 µM in test [1] (setting [3]) and in test [2] (setting [3]) was 0% each time.
`COCCCNc1nc(-c2nccn2C)nc2sc(-c3ccn(C)n3)c(-c3ccc(OC)cc3)c12` [drawing 411]: the inhibition at 10 µM in test [1] (setting [3]) and in test [2] (setting [3]) was 0% each time.
In the case of `COCCN(C)C(=O)c1nc(-c2ccccn2)nc(O)c1O` [drawing 460], the inhibition at 10 µM in test [1] (setting [3]) and in test [2] (setting [3]) was 0% throughout.
Regarding `CO[C@H]1C[C@@H](Nc2nc(-c3ccccn3)nc3sccc23)C1` [drawing 502], the inhibition at 10 µM in test [1] (PANC-1 (Table 4C)) is 0%; in test [2] (PANC-1 (Table 4C)) it was 1 to 25%.
Regarding `CC(C)COc1ccc(-c2csc3c(O)nc(-c4nccn4Cc4ccccn4)nc23)cn1` [drawing 499], the inhibition at 10 µM was 0% in test [1] (PANC-1 (Table 4C)) and 76 to 100% in test [2] (PANC-1 (Table 4C)).
With `COc1c(O)nc(-c2ccccn2)nc1Oc1cnn(C)c1` [drawing 445], the inhibition at 10 µM was 0% in test [1] (setting [3]) and 1 to 25% in test [2] (setting [3]).
As for `CC(C)CN(C)C(=O)c1nc(-c2ccccn2)nc(O)c1O` [drawing 458], the inhibition at 10 µM in test [1] (setting [3]) and in test [2] (setting [3]) was 0% each time.
In the case of `COc1c(O)nc(-c2ccccn2)nc1Oc1ccccc1` [drawing 451], the inhibition at 10 µM in test [1] (setting [3]) and in test [2] (setting [3]) was 0% in each case.
As for `COc1cccc(-c2sc3nc(-c4nccn4C)nc(N4CCC(OC)C4)c3c2-c2cscn2)c1` (centres unmarked) [drawing 417], the inhibition at 10 µM in test [1] (setting [3]) and in test [2] (setting [3]) was 0% throughout.
Take `Cn1ccc(-c2sc3nc(-c4nccn4C)nc(N[C@H]4C[C@@H](O)C4)c3c2-c2ccccc2)n1` [drawing 508]: the figures for the inhibition at 10 µM in test [1] (PANC-1 (Table 4C)) and in test [2] (PANC-1 (Table 4C)) were 0% and 1 to 25%, respectively.
Take `COC1CCN(c2nc(-c3nccn3C)nc3sc(-c4ccc(N)nc4C)c(-c4ccccc4)c23)C1` (centres unmarked) [drawing 437]: the inhibition at 10 µM in test [1] (setting [3]) was 0%; in test [2] (setting [3]) it was 26 to 50%.
For `COCC(C)Nc1nc(-c2nccn2C)nc2sc(-c3ccn(C)n3)c(-c3ccccc3)c12` (centres unmarked) [drawing 402], the values for the inhibition at 10 µM in test [1] (setting [3]) and in test [2] (setting [3]) were 0% and 51 to 75%, respectively.
Take `Cn1ccnc1-c1nc(O)c(O)c(C(=O)N2CCCCC2)n1` [drawing 466]: the inhibition at 10 µM in test [1] (setting [3]) and in test [2] (setting [3]) was 0% each time.
As to `Cn1ccnc1-c1nc(O)c(O)c(C(=O)NC2CCC2)n1` [drawing 467], the inhibition at 10 µM in test [1] (setting [3]) and in test [2] (setting [3]) was 0% in each case.
For `COCCCN(C)c1nc(-c2nccn2C)nc2sc(-c3ccn(C)n3)c(-c3ccccc3)c12` [drawing 401], the inhibition at 10 µM is 0% in test [1] (setting [3]) and 51 to 75% in test [2] (setting [3]).
As to `COc1cccc(-c2sc3nc(-c4nccn4C)nc(N[C@H]4C[C@@H](OC)C4)c3c2-c2ccccc2)c1F` [drawing 491], the inhibition at 10 µM in test [1] (PANC-1 (Table 4C)) and in test [2] (PANC-1 (Table 4C)) was 76 to 100% in each case.
For the compound `COc1nscc1-c1sc2nc(-c3nccn3C)nc(N3CCC(OC)C3)c2c1-c1ccccc1` (centres unmarked) [drawing 439], the results for the inhibition at 10 µM in test [1] (setting [3]) and in test [2] (setting [3]) were 0% and 51 to 75%, respectively.
Taken in the same sequence, the figures for `COc1ncccc1-c1sc2nc(-c3nccn3C)nc(N3CCC(OC)C3)c2c1-c1ccccc1` (centres unmarked) [drawing 431] were 0% and 76 to 100%.
Consider `COC1CCN(c2nc(-c3nccn3C)nc3sc(-c4ccn(C)n4)c(-c4ccccc4)c23)CC1` [drawing 410], for which the inhibition at 10 µM in test [1] (setting [3]) was 0%; in test [2] (setting [3]) it was 76 to 100%.
`CO[C@H]1C[C@@H](Nc2nc(-c3ncc[nH]3)nc3sc(-c4ccn(C)n4)c(-c4ccccc4)c23)C1` [drawing 510]: the inhibition at 10 µM in test [1] (PANC-1 (Table 4C)) and in test [2] (PANC-1 (Table 4C)) was 0% throughout.
Consider `CO[C@H]1C[C@@H](Nc2nc(-c3nccn3C)nc3sc(-c4ccn(C)n4)c(-c4ccccc4)c23)C1` [drawing 505], for which the inhibition at 10 µM in test [1] (PANC-1 (Table 4C)) and in test [2] (PANC-1 (Table 4C)) was 76 to 100% throughout.
Consider `Cn1ccnc1-c1nc(O)c2scc(-c3ccccn3)c2n1` [drawing 387], for which the inhibition at 10 µM in test [1] (setting [3]) and in test [2] (setting [3]) was 0% throughout.
With `COC1CCN(c2nc(-c3nccn3C)nc3sc(-c4ccnc(N(C)C)c4)c(-c4ccccc4)c23)C1` (centres unmarked) [drawing 440], the inhibition at 10 µM in test [1] (setting [3]) is 0%; in test [2] (setting [3]) it was 76 to 100%.
In the case of `COc1cccc(-c2sc3nc(-c4nccn4C)nc(N[C@@H]4CC[C@H](OC)C4)c3c2-c2ccccc2)c1F` [drawing 484], the inhibition at 10 µM in test [1] (PANC-1 (Table 4C)) and in test [2] (PANC-1 (Table 4C)) was 76 to 100% throughout.
Consider `COc1ccc(-c2c(-c3cccc(OC)c3F)sc3nc(-c4nccn4C)nc(N4CCC(OC)C4)c23)cc1` (centres unmarked) [drawing 442], for which the inhibition at 10 µM in test [1] (setting [3]) and in test [2] (setting [3]) was 0% each time.
As to `CO[C@H]1CC[C@@H](Nc2nc(-c3nccn3C)nc3sc(C(=O)NC(C)C)c(-c4ccccc4)c23)C1` [drawing 524], the inhibition at 10 µM in test [1] (PANC-1 (Table 4C)) and in test [2] (PANC-1 (Table 4C)) was 0% each time.
In the case of `COC1CCN(c2nc(-c3nccn3C)nc3sc(-c4cnc(C5CC5)o4)c(-c4ccccc4)c23)C1` (centres unmarked) [drawing 432], the inhibition at 10 µM is 0% in test [1] (setting [3]) and 51 to 75% in test [2] (setting [3]).
The matching figures for `COc1ccc(-c2c(-c3ccn(C)n3)sc3nc(-c4nccn4C)nc(N4CCC(OC)C4)c23)cc1` (centres unmarked) [drawing 413]: 0% and 1 to 25%.
